The values below come from US7169789B2 (Kirin Beer Kabushiki Kaisha, priority 1999, dated 2007).

A value given as a limit tells only on which side of the number the result lay.

Data set [1] deals with A375 human melanoma cells. The data set can be described thus: Karyomorphosis test. The class given is cell-based. As to conditions: test compound 10 μM and 1 μM, 48 hr, nuclei stained with propidium iodide. As for the experimental part:
A375 human melanoma cells (2×10^4) (obtained from Japanese Foundation for Cancer Research) were incolulated on a culture slide (manufactured by Falcon) and were cultured at 37° C. After the elapse of 5 hr from the initiation of the cultivation, the test compound was added to 10 μM and 1 μM, and the cultivation was continued for additional 48 hr. After the fixation of cells, 50 μg/ml propidium iodide solution containing ribonuclease (200 μg/ml) was added to stain nuclei. The stained nuclei were observed under a fluorescent microscope to analyze the nuclei for abnormality of karyomorphosis.

In data set [2] the test system is activation of MAPK within vascular endothelial cells induced by VEGF stimulation. The data set can be described thus: Inhibitory activity against activation of MAPK within vascular endothelial cells induced by VEGF stimulation. In kind it is cell-based. The settings on record: Endothelial cell; human funicular venous vascular endothelial cells, VEGF 50 ng/ml, phosphorylated MAPK by immunoblotting. As for the experimental part:
Measurement of Inhibitory Activity Against Activation of MAPK Within Vascular Endothelial Cells Induced by VEGF Stimulation
Human funicular venous vascular endothelial cells (purchased from Chronetics) were cultured in an EGM-2 medium (purchased from Chronetics) within an incubator containing 5% carbon dioxide until 50 to 70% confluent, and the culture was inoculated into wells, containing the same medium, in a 96-well flat-bottom plate in an amount of 1.5×10^5 per well. After cultivation at 37° C. overnight, the medium was replaced by an EBM-2 medium containing 0.5% fetal calf serum (purchased from Chronetics), followed by cultivation for 24 hr. A solution of the test compound in dimethyl sulfoxide was added to each well, and the cultivation was continued at 37° C. for additional one hr. A human recombinant vascular endothelial growth factor (hereinafter abbreviated to “VEGF”) was added to a final concentration of 50 ng/ml, and the stimulation of cells was carried out at 37° C. for 8 min. The medium was removed, the cells were washed with phosphate buffered saline (pH 7.4), and 10 μl of a solubilization buffer (Tris buffered saline (pH 7.4) containing 1% Triton X100, 2 mM sodium orthovanadylate, and 1 mM disodium ethylenediaminetetraacetate) was then added thereto. The mixture was shaken at 4° C. for one hr to solubilize the cells. An equal amount of Tris buffered saline containing 1% sodium laurylsulfate was added to and thoroughly mixed with the solution. This solution (2 μl) was adsorbed on a PVDF filter by dot blotting, and this filter was subjected to immunoblotting with anti-tyrosine phosphorylated MAPK antibody (purchased from Daiichi Pure Chemicals).
The level of phosphorylated MAPK was quantitatively determined with a densitometer, and the percentage phosphorylated MAPK in the presence of the test compound was determined by presuming the level of phosphorylated MAPK with the addition of VEGF in the absence of the test compound to be 100% and the level of phosphorylated MAPK in the absence of the test compound and VEGF to be 0%. The test compound concentration (IC50) necessary for inhibiting 50% of the activation of MAPK was calculated based on the percentage of phosphorylated MAPK.

Data set [3] addresses T1, human KDR (Homo sapiens, UniProt P35968).
T1 construct: expressed in transfected cells; host or cells: NIH 3T3 cells (Sawano A et al., Cell Growth & Differentiation 7, 213-221 (1996))
The data set can be described thus: Inhibitory activity against KDR phosphorylation by ELISA. As to conditions: NIH 3T3 cells transfected with human KDR, VEGF 100 ng/ml. The class given is cell-based.

Data set [4] deals with Human glioma cells GL07. As to the kind of experiment: Antitumor effect on human glioma cells (GL07) transplanted into nude mice. In kind it is in vivo. The settings on record: Mus musculus, Glioma cell, 216 h, GL07, oral, 20 mg/kg once a day for 9 days, read-out: TGIR, % (tumor growth inhibition rate). Summed up:
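GL07 xenografts in nude mice, grouped (n=4) at ~100 mm^3 tumor volume. Test compound 20 mg/kg p.o. or i.p. once daily for 9 days; vehicle controls. TGIR = (1−Tx/Cx)×100 from tumor volumes normalized to day-of-start volume = 1.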

T1 sequence (P35968 20-1356): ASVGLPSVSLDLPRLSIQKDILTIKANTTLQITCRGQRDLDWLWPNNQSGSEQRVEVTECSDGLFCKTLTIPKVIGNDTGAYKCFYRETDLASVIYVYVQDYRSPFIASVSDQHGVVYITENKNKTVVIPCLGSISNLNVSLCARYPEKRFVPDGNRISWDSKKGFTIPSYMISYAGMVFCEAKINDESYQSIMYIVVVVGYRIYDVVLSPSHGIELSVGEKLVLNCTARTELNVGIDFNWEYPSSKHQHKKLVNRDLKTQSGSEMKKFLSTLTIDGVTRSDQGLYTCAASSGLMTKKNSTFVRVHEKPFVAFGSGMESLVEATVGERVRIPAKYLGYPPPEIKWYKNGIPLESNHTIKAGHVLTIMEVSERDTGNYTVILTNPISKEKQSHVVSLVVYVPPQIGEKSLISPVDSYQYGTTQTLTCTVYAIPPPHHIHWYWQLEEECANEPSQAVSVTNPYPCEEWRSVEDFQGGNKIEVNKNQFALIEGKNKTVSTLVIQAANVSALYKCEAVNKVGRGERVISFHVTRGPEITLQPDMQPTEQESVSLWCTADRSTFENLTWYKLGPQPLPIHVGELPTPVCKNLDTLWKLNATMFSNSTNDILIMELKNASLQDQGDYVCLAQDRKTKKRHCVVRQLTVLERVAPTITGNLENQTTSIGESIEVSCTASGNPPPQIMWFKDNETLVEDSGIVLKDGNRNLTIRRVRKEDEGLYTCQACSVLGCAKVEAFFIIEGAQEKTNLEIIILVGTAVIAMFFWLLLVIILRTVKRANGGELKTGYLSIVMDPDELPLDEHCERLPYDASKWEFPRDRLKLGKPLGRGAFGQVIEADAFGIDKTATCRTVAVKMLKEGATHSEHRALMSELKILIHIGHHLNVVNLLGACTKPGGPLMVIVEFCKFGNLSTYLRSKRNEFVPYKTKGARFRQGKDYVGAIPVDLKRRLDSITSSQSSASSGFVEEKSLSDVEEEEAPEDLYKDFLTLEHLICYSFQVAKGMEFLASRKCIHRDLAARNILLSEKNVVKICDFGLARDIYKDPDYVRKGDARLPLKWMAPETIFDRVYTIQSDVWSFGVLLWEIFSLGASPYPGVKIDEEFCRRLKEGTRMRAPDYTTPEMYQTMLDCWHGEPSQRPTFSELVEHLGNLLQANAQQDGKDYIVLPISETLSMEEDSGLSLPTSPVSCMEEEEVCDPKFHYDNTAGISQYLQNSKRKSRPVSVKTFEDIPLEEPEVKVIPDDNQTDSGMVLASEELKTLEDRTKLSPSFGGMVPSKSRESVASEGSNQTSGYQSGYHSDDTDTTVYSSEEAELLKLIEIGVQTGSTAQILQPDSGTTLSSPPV

Take `CCCNC(=O)Nc1cc(C)c(Oc2ccnc3cc(OC)c(OC)cc23)cc1C` [Example 38, N-{4-[(6,7-Dimethoxy-4-quinolyl)oxy]-2,5-dimethylphenyl}-N′-propylurea]: the Change in morphosis entry in data set [1] is “(−) (the change in karyomorphosis of cells did not take place at 10 μM)”.

With `COc1cc2ncnc(Oc3ccc(NC(=O)Nc4ccc(F)cc4F)c(Cl)c3)c2cc1OC` [Example 61, N-{2-Chloro-4-[(6,7-dimethoxy-4-quinazolinyl)oxy]phenyl}-N′-(2,4-difluorophenyl)urea], the Change in morphosis result in data set [1] is “(−) (the change in karyomorphosis of cells did not take place at 10 μM)”.

As to `COc1ccccc1NC(=O)Nc1ccc(Oc2ccnc3cc(OCc4ccccc4)c(OC)cc23)c(C)c1C` [Example 60, N-(4-{[7-(Benzyloxy)-6-methoxy-4-quinolyl]oxy}-2,3-dimethylphenyl)-N′-(2-methoxyphenyl)-urea], the Change in morphosis entry in data set [1] is “(−) (the change in karyomorphosis of cells did not take place at 10 μM)”.

A word on the IC50: it is the point on the concentration scale where inhibition reaches its midpoint. Higher therefore signals weaker potency in that assay. Take `C=CCNC(=O)Nc1ccc(Oc2ncnc3cc(OC)c(OC)cc23)cc1` [Example 68, N-Allyl-N′-{4-[(6,7-Dimethoxy-4-quinazolinyl)oxy]phenyl}urea]: the IC50 was 45 nM in data set [2] and 24 nM in data set [3]. Moreover, the inhibition in vivo at 20 mg/kg in data set [4] came out at 57%.

Turning to `CCC(C)NC(=O)Nc1ccc(Oc2ncnc3cc(OC)c(OC)cc23)cc1Cl` (centres unmarked) [Example 79, N-(sec-Butyl)-N′-{2-chloro-4-[(6,7-dimethoxy-4-quinazolinyl)oxy]phenyl}urea], the values for the IC50 in data set [2] and in data set [3] were 30 nM and 18 nM, respectively. Further, in data set [4], the inhibition in vivo at 20 mg/kg was 28%.

Consider `COc1cc2ncnc(Oc3ccc(NC(=O)NCc4ccccn4)cc3)c2cc1OC` [Example 71, N-{4-[(6,7-Dimethoxy-4-quinazolinyl)oxy]-phenyl}-N′-(2-pyridylmethyl)urea], for which the IC50 in data set [2] was determined as 750 nM; in data set [3] it was 350 nM. In addition, the inhibition in vivo at 20 mg/kg in data set [4] amounted to 67%.

In the case of `CCCNC(=O)Nc1ccc(Oc2ncnc3cc(OC)c(OC)cc23)cc1C` [Example 102, N-{4-[(6,7-Dimethoxy-4-quinazolinyl)oxy]-2-methylphenyl}-N′-propylurea], the IC50 in data set [2] was determined as 150 nM; in data set [3], 105 nM. Further, the inhibition in vivo at 20 mg/kg in data set [4] was determined as 24%.

`CCCCNC(=O)Nc1ccc(Oc2ncnc3cc(OC)c(OC)cc23)cc1Cl` [Example 77, N-Butyl-N′-{2-chloro-4-[(6,7-dimethoxy-4-quinazolinyl)oxy]phenyl}urea]: the values for the IC50 in data set [2] and in data set [3] were 71 nM and 6 nM, respectively. In data set [4], the inhibition in vivo at 20 mg/kg was found to be 26%.

`COc1cc2nccc(Oc3ccc(NC(=O)Nc4ccc(Br)c(C)n4)c(Cl)c3)c2cc1OC` [Example 15, N-(5-Bromo-6-methyl-2-pyridyl)-N′-{2-chloro-4-[(6,7-dimethoxy-4-quinolyl)oxy]phenyl}urea]: the Change in morphosis entry in data set [1] is on record as “(−) (the change in karyomorphosis of cells did not take place at 10 μM)”.

Regarding `COc1cc2ncnc(Oc3ccc(NC(=O)Nc4ccc(F)cc4F)c(F)c3)c2cc1OC` [Example 94, N-(2,4-Difluorophenyl)-N′-{4-[(6,7-dimethoxy-4-quinazolinyl)oxy]-2-fluorophenyl}urea], the concentration for half-maximal inhibition (IC50) in data set [2] worked out at 1.8 nM; in data set [3], 2.3 nM. Also, the inhibition in vivo at 20 mg/kg in data set [4] was determined as 29%.

`CCCCNC(=O)Nc1ccc(Oc2ncnc3cc(OC)c(OC)cc23)cc1C` [Example 103, N-Butyl-N′-{4-[(6,7-dimethoxy-4-quinazolinyl)oxy]-2-methylphenyl}urea]: the values for the IC50 in data set [2] and in data set [3] were 53 nM and 78 nM, respectively. Further, in data set [4], the inhibition in vivo at 20 mg/kg came to 23%.

Turning to `C=CCNC(=O)Nc1ccc(Oc2ncnc3cc(OC)c(OC)cc23)cc1Cl` [Example 80, N-Allyl-N′-{2-chloro-4-[(6,7-dimethoxy-4-quinazolinyl)oxy]phenyl}urea], the IC50 stood at 13 nM in data set [2] and 2.7 nM in data set [3]. Moreover, the inhibition in vivo at 20 mg/kg in data set [4] turned out to be 52%.

As to `CCCNC(=O)Nc1ccc(Oc2ncnc3cc(OC)c(OC)cc23)cc1[N+](=O)[O-]` [Example 107, N-{4-[(6,7-Dimethoxy-4-quinazolinyl)oxy]-2-nitrophenyl}-N′-propylurea], the half-inhibitory concentration (IC50) worked out at 10.2 nM in data set [2] and 11 nM in data set [3]. For the same compound, the inhibition in vivo at 20 mg/kg in data set [4] was found to be 49%.

For `COc1cc2ncnc(Oc3ccc(NC(=O)Nc4ccc(F)cc4F)cc3C)c2cc1OC` [Example 99, N-(2,4-Difluorophenyl)-N′-{4-[(6,7-dimethoxy-4-quinazolinyl)oxy]-3-methylpenyl}urea], the IC50 in data set [2] turned out to be 8.8 nM; in data set [3], 25 nM. In addition, the inhibition in vivo at 20 mg/kg in data set [4] is 33%.

In the case of `CCCCNC(=O)Nc1ccc(Oc2ncnc3cc(OC)c(OC)cc23)cc1F` [Example 89, N-Butyl-N′-{4-[(6,7-dimethoxy-4-quinazolinyl)oxy]-2-fluorophenyl}urea], the IC50 was 45 nM in data set [2] and 24 nM in data set [3]. The inhibition in vivo at 20 mg/kg in data set [4] stood at 40%.

For the compound `COc1cc2nccc(Oc3cc(C)c(NC(=O)Nc4ccc(Br)c(C)n4)cc3C)c2cc1OC` [Example 44, N-(5-Bromo-6-methyl-2-pyridyl)-N′-{4-[(6,7-dimethoxy-4-quinolyl)oxy]-2,5-dimethylphenyl}urea], the Change in morphosis entry in data set [1] is listed as “(−) (the change in karyomorphosis of cells did not take place at 10 μM)”.

Take `CCCCNC(=O)Nc1ccc(Oc2ncnc3cc(OC)c(OC)cc23)c(C)c1` [Example 98, N-Butyl-N′-{4-[(6,7-dimethoxy-4-quinazolinyl)oxy]-3-methylphenyl}urea]: the IC50 in data set [2] amounted to 450 nM; in data set [3], 330 nM. Moreover, the inhibition in vivo at 20 mg/kg in data set [4] was 38%.

Take `COc1cc2ncnc(Oc3ccc(NC(=O)Nc4ccc(F)cc4)cc3C)c2cc1OC` [Example 100, N-{4-[(6,7-Dimethoxy-4-quinazolinyl)oxy)-3-methylphenyl}-N′-(4-fluorophenyl)urea]: the IC50 was determined as 5.2 nM in data set [2] and 13 nM in data set [3]. Further, the inhibition in vivo at 20 mg/kg in data set [4] was found to be 36%.

`COc1cc2ncnc(Oc3ccc(NC(=O)N(C)c4ccccn4)c(Cl)c3)c2cc1OC` [Example 83]: the IC50 in data set [2] was greater than 1000 nM; in data set [3] it was 840 nM. The inhibition in vivo at 20 mg/kg in data set [4] came out at 31%.

Regarding `COc1cc2ncnc(Oc3ccc(NC(=O)NCc4ccc(F)cc4F)c(F)c3)c2cc1OC` [Example 93, N-(2,4-Difluorobenzyl)-N′-{4-[(6,7-dimethoxy-4-quinazolinyl)oxy]-2-fluorophenyl}urea], the IC50 in data set [2] was found to be 14 nM; in data set [3], 37 nM. Besides, the inhibition in vivo at 20 mg/kg in data set [4] is 29%.

For `CCCNC(=O)Nc1ccc(Oc2ncnc3cc(OC)c(OC)cc23)c(C)c1` [Example 97, N-{4-[(6,7-Dimethoxy-4-quinazolinyl)oxy]-3′-methylphenyl}-N′-propylurea], the results for the IC50 in data set [2] and in data set [3] were 518 nM and 490 nM, respectively. The inhibition in vivo at 20 mg/kg in data set [4] was determined as 48%.

Regarding `CCC(C)NC(=O)Nc1ccc(Oc2ncnc3cc(OC)c(OC)cc23)cc1` (centres unmarked) [Example 67, N-(sec-Butyl)-N′-{4-[(6,7-dimethoxy-4-quinazolinyl)oxy]phenyl}urea], the IC50 in data set [2] was determined as 345 nM; in data set [3], 63 nM. Moreover, the inhibition in vivo at 20 mg/kg in data set [4] stood at 30%.
